Where “and” joins values, the source holds several entries; their conditions need not be identical. Equal values may be shown once. Inconclusive results and toxic doses are left out.

In the experiment the test system is P388 leukemia ip, CD2F1 mice, survival T/C. The experiment can be described thus: NCI In Vivo Anticancer Drug Screen. Data for tumor model P388 Leukemia (intraperitoneal) in CD2F1 (CDF1) mice. The conditions noted are these: endpoint: median survival time, higher = longer survival. Put shortly: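 Mice carrying the transplanted tumor received test compound or vehicle. Survival was recorded in each group, and the value is the treated-group measurement divided by that of the vehicle-treated control group.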

[1] abbreviates: dose: 50.0 mg/kg/injection, schedule: Q01DX005 (ip), vehicle: saline with Tween-80.
Setting [2] is: dose: 100.0 mg/kg/injection, schedule: Q01DX005 (ip), vehicle: saline with Tween-80.
Setting [3] is: dose: 200.0 mg/kg/injection, schedule: Q01DX005 (ip), vehicle: saline with Tween-80.
Where [4] appears, read: dose: 6.25 mg/kg/injection, schedule: Q01DX009 (ip), vehicle: saline with Tween-80.
The mark [5] stands for this setting: dose: 12.5 mg/kg/injection, schedule: Q01DX009 (ip), vehicle: saline with Tween-80.

As for `CS(C)=O`, the T/C runs as follows: (dose: 93.75 mg/kg/injection, schedule: Q01DX009 (ip), vehicle: saline) 109 % of control; (dose: 187.5 mg/kg/injection, schedule: Q01DX009 (ip), vehicle: saline) 107 % of control; (dose: 375.0 mg/kg/injection, schedule: Q01DX009 (ip), vehicle: saline) 98 % of control; (dose: 750.0 mg/kg/injection, schedule: Q01DX009 (ip), vehicle: saline) 109 % of control; (dose: 1500.0 mg/kg/injection, schedule: Q01DX009 (ip), vehicle: saline) 104 % of control; (dose: 1.5 grams/kg/injection, schedule: Q01DX001 (ip), vehicle: saline) 99 % of control and 101 % of control. Besides, the T/C is 101 % of control and 109 % of control (dose: 1.5 grams/kg/injection, schedule: Q01DX009 (ip), vehicle: saline); 103 % of control and 95 % of control (dose: 2.0 % in 0.5 ml injection vol, schedule: Q01DX009 (ip), vehicle: water); 104 % of control (dose: 3000.0 mg/kg/injection, schedule: Q01DX001 (ip), vehicle: water); 95 % of control (dose: 3000.0 mg/kg/injection, schedule: Q01DX009 (ip), vehicle: saline); 104 % of control and 106 % of control (dose: 3.0 grams/kg/injection, schedule: Q01DX001 (ip), vehicle: saline); 96 % of control (dose: 3.0 grams/kg/injection, schedule: Q01DX009 (ip), vehicle: saline). Besides, the T/C runs as follows: (dose: 3.1 grams/kg/injection, schedule: Q01DX009 (ip), vehicle: water) 101 % of control; (dose: 4.0 % in 0.5 ml injection vol, schedule: Q01DX009 (ip), vehicle: water) 112 % of control and 94 % of control; (dose: 6000.0 mg/kg/injection, schedule: Q01DX001 (ip), vehicle: water) 99 % of control; (dose: 6.0 grams/kg/injection, schedule: Q01DX001 (ip), vehicle: saline) 95 % of control and 98 % of control; (dose: 6.0 grams/kg/injection, schedule: Q01DX009 (ip), vehicle: saline) 100 % of control and 106 % of control; (dose: 6.2 grams/kg/injection, schedule: Q01DX009 (ip), vehicle: water) 97 % of control. Further, the T/C is, setting by setting: (dose: 6.25 % in 0.5 ml injection vol, schedule: Q01DX009 (ip), vehicle: water) 103 % of control; (dose: 8.0 % in 0.5 ml injection vol, schedule: Q01DX009 (ip), vehicle: water) 103 % of control and 112 % of control; (dose: 12000.0 mg/kg/injection, schedule: Q01DX001 (ip), vehicle: water) 101 % of control; (dose: 12.0 grams/kg/injection, schedule: Q01DX001 (ip), vehicle: saline) 104 % of control and 96 % of control; (dose: 12.5 % in 0.5 ml injection vol, schedule: Q01DX009 (ip), vehicle: water) 110 % of control; (dose: 12.5 grams/kg/injection, schedule: Q01DX009 (ip), vehicle: water) 108 % of control. The T/C runs as follows: (dose: 16.0 % in 0.5 ml injection vol, schedule: Q01DX009 (ip), vehicle: water) 102 % of control and 105 % of control and 112 % of control; (dose: 24.0 grams/kg/injection, schedule: Q01DX001 (ip), vehicle: saline) 37 % of control and 39 % of control; (dose: 25.0 % in 0.5 ml injection vol, schedule: Q01DX009 (ip), vehicle: water) 117 % of control; (dose: 32.0 % in 0.5 ml injection vol, schedule: Q01DX009 (ip), vehicle: water) 111 % of control and 121 % of control.
`O=C(Nc1ccc(Cl)c(Cl)c1)Sc1ccc(Cl)cc1`: the T/C reads like this: under setting [1], 113 % of control; under setting [2], 119 % of control; under setting [3], 112 % of control.
For `CN(C)c1ccc(C2OC3(CCCCC3)C[N+]23CCCC3)cc1` (stereo not given), the T/C is, setting by setting: (dose: 3.12 mg/kg/injection, schedule: Q01DX009 (ip), vehicle: saline with Tween-80) 100 % of control; under setting [4], 104 % of control; under setting [5], 86 % of control.
With `CCC(C)c1cnc(CC(C)C)c(=O)n1O` (stereo not given), the T/C reads like this: under setting [4], 90 % of control; under setting [5], 91 % of control; (dose: 25.0 mg/kg/injection, schedule: Q01DX009 (ip), vehicle: saline with Tween-80) 94 % of control; (dose: 50.0 mg/kg/injection, schedule: Q01DX009 (ip), vehicle: saline with Tween-80) 100 % of control.
As to `Cc1nn(C(=S)S)c(C)c1N=Nc1cccc(F)c1`, the T/C was 117 % of control under setting [1], 111 % of control under setting [2] and 106 % of control under setting [3].
On to `CN1CC[N+](C)(Cc2ccc(C[N+]3(C)CC[N+](C)(Cc4ccc(CCl)cc4)CC3)cc2)CC1` (stereo not given), for which the T/C by setting is: (dose: 12.5 mg/kg/injection, schedule: Q04DX003 (ip), vehicle: saline) 112 % of control; (dose: 25.0 mg/kg/injection, schedule: Q04DX003 (ip), vehicle: saline) 102 % of control; (dose: 50.0 mg/kg/injection, schedule: Q04DX003 (ip), vehicle: saline) 119 % of control.
Turning to `C/C=C/C=C1/OC(C)=C(C(C)=O)C1=O`, the T/C (dose: 12.5 mg/kg/injection, schedule: Q01DX009 (ip), vehicle: saline + Tween-80 + alcohol) was 117 % of control; the T/C (dose: 25.0 mg/kg/injection, schedule: Q01DX009 (ip), vehicle: saline + Tween-80 + alcohol) is 114 % of control; the T/C (dose: 100.0 mg/kg/injection, schedule: Q01DX009 (ip), vehicle: saline + Tween-80 + alcohol) was 112 % of control; the T/C (dose: 100.0 mg/kg/injection, schedule: Q01DX009 (ip), vehicle: saline with Tween-80) is 124 % of control; the T/C (dose: 200.0 mg/kg/injection, schedule: Q01DX009 (ip), vehicle: saline + Tween-80 + alcohol) is 123 % of control.
For `O=C(O)c1cnc2c(C(F)(F)F)cccc2c1Nc1ccc2c(c1)OCO2`, the T/C is, setting by setting: (dose: 7.5 mg/kg/injection, schedule: Q01DX005 (ip), vehicle: Klucel (hydroxypropylcellulose) (HPC)) 92 % of control; (dose: 15.0 mg/kg/injection, schedule: Q01DX005 (ip), vehicle: Klucel (hydroxypropylcellulose) (HPC)) 101 % of control; (dose: 30.0 mg/kg/injection, schedule: Q01DX005 (ip), vehicle: Klucel (hydroxypropylcellulose) (HPC)) 105 % of control; (dose: 120.0 mg/kg/injection, schedule: Q01DX005 (ip), vehicle: Klucel (hydroxypropylcellulose) (HPC)) 101 % of control; (dose: 240.0 mg/kg/injection, schedule: Q01DX005 (ip), vehicle: Klucel (hydroxypropylcellulose) (HPC)) 96 % of control.
`N=C1C=CC2C(=Nc3ccccc3[N+]2=O)N1Cc1ccncc1` (stereo not given): the T/C is, setting by setting: (dose: 60.0 mg/kg/injection, schedule: Q01DX005 (ip), vehicle: saline with Tween-80) 98 % of control; (dose: 120.0 mg/kg/injection, schedule: Q01DX005 (ip), vehicle: saline with Tween-80) 90 % of control; (dose: 240.0 mg/kg/injection, schedule: Q01DX005 (ip), vehicle: saline with Tween-80) 98 % of control.
As for `O=C(O)c1ccccc1N1C(=O)CC2(CCCC2)C1=O`, the T/C runs as follows: (dose: 50.0 mg/kg/injection, schedule: Q01DX009 (ip), vehicle: Klucel (hydroxypropylcellulose) (HPC)) 101 % of control; (dose: 100.0 mg/kg/injection, schedule: Q01DX009 (ip), vehicle: Klucel (hydroxypropylcellulose) (HPC)) 98 % of control; (dose: 200.0 mg/kg/injection, schedule: Q01DX009 (ip), vehicle: Klucel (hydroxypropylcellulose) (HPC)) 94 % of control.
For the compound `CCNNC(=O)[C@@H]1[C@H](c2cc(OC)c(OC)c(OC)c2)c2cc3c(cc2[C@H](O)[C@H]1CO)OCO3`, the T/C runs as follows: (dose: 100.0 mg/kg/injection, schedule: Q04DX003 (ip), vehicle: saline with Tween-80) 109 % of control; (dose: 200.0 mg/kg/injection, schedule: Q04DX003 (ip), vehicle: saline with Tween-80) 113 % of control; (dose: 400.0 mg/kg/injection, schedule: Q04DX003 (ip), vehicle: saline with Tween-80) 104 % of control.
With `C1CN1c1nc(N2CC2)nc(N2CC2)n1`, the T/C runs as follows: (dose: 0.05 mg/kg/injection, schedule: Q01DX009 (ip), vehicle: saline) 111 % of control; (dose: 0.13 mg/kg/injection, schedule: Q01DX009 (ip), vehicle: saline) 115 % of control; (dose: 0.2 mg/kg/injection, schedule: Q01DX009 (ip), vehicle: saline) 159 % of control; (dose: 0.25 mg/kg/injection, schedule: Q01DX009 (ip), vehicle: saline) 150 % of control and 169 % of control; (dose: 0.4 mg/kg/injection, schedule: Q01DX009 (ip), vehicle: saline) 235 % of control; (dose: 0.5 mg/kg/injection, schedule: Q01DX009 (ip), vehicle: saline) 106 % of control and 120 % of control and 246 % of control. For the same compound, the T/C (dose: 1.0 mg/kg/injection, schedule: Q01DX009 (ip), vehicle: saline) was 88 % of control.

The record behind these values is PubChem BioAssay AID330 (DTP/NCI, 2004).
